Where a name gives a salt, the structure may show the parent alone.
What was measured:
DBA/2 mice = assay: Audiogenic seizure (anticonvulsant) test in DBA/2 mice; assay type: in vivo; settings: Mus musculus, intravenous, sound-induced tonic seizures, tested 15 or 45 minutes after injection, read-out: DBA/2 mice % Protection
Experimental: In vivo Biological Protocol:
A compound of the present invention was dissolved in water using 10% (weight/volume) Emulphor (GAF Corp., Wayne, N.J.) surfactant. Substances were administered by intravenous injection into the retro-orbital venous sinus. All testing was performed 15 minutes or 45 minutes after drug injection. All the male mice, 3-4 weeks old were obtained from Jackson Laboratories Bar Harbour, Me. Immediately before anticonvulsant testing, mice were placed upon a wire mesh, 4 inches square suspended from a steel rod. The square was slowly inverted through 180 degrees and mice observed for 30 seconds. Any mouse falling from the wire mesh was scored as ataxia.
Mice were placed into an enclosed acrylic plastic chamber (21 cm height, approximately 30 cm diameter) with a high-frequency speaker (4 cm diameter) in the center of the top lid. An audio signal generator (Protek model B-810) was used to produce a continuous sinusoidal tone that was swept linearly in frequency between 8 kHz and 16 kHz once each 10 msec. The average sound pressure level (SPL) during stimulation was approximately 100 dB at the floor of the chamber. Mice were placed within the chamber and allowed to acclimatize for 1 minute. DBA/2 mice in the vehicle-treated group responded to the sound stimulus (applied until tonic extension occurred, or for a maximum of 60 sec) with a characteristic seizure sequence consisting of wild running followed by clonic seizures, and later by tonic extension, and finally by respiratory arrest and death in 80% or more of the mice. In vehicle-treated mice, the entire sequence of seizures to respiratory arrest lasts approximately 15-20 seconds.
The incidence of all the seizure phases in the drug-treated and vehicle-treated mice was recorded, and the occurrence of tonic seizures were used for calculating anticonvulsant ED50 values by probit analysis. Mice were used only once for testing at each time and dose point.

N-type Ca2+ channel = target: T1, N-type Ca2+ channel (Homo sapiens, UniProt Q00975); assay: Measurement of N-type Ca2+ channel blocking potencies in IMR-32 cells using the fluorescent Ca2+ indicator Indo-1; assay type: cell-based; settings: for IC50: K+-stimulated Ca2+ flux, 5 μM nitrendipine to block L-type channels; for inhibition at 1 µM: 1 μM compound, read-out: IMR 32 % of Blockade @ 1 μM; for inhibition at 1 µM / inhibition at 10 µM: 5 μM nitrendipine; for inhibition at 10 µM: 10 μM compound, read-out: IMR 32 % of Blockade @ 10 μM
T1 construct: host or cells: IMR-32 cells, differentiated with dibutyryl cAMP and bromodeoxyuridine
Experimental: Measurement of N-type Ca^2+ Channel Blocking Potencies of Compounds in IMR-32 Cells Using the Fluorescent Ca^2+Indicator Indo-1
IMR-32 cells are a human tumoral cell line of neural origin. […] Calcium flux into these cells may be induced by stimulation with elevated potassium concentrations. The L-channel component of calcium flux may be blocked by adding 5 μM nitrendipine. The remaining component of calcium entry into the IMR-32 cells is due to calcium flux through N-type calcium channels. Intracellular calcium concentrations are measured using the fluorescent calcium indicator Indo-1. The effect of drug concentration on calcium uptake is studied.
The IMR-32 cell line was obtained from the American Type Culture Collection (Rockville, Md.). Cells were grown in Eagle's Minimum Essential Medium with Earle's salts supplemented with 10% fetal bovine serum, 2 mM L-Gln and antibiotic/antimycotic mixture (Gibco). […] After 7 to 13 days of differentiation, cells were detached using 0.5 mM EDTA and loaded with 5 μM Indo-1 acetoxymethyl ester (Molecular Probes, Eugene, Oreg.) at 30° C. for 45 minutes. Loaded cells were washed twice, resuspended (˜10^7 cells/mL) in assay buffer (10 mM HEPES/Tris pH 7.4 in Hank's Balanced Salt Solution without bicarbonate or phenol red containing 0.5% bovine serum albumin) and kept on ice until use. Fluorescence measurements were carried out in a Photon Technology International (PTI, South Brunswick, N.J.) Model RF-F3004 spectrofluorometer with dual emission monochromators using excitation at […] and emission at 400 and 490 nm. The instrument was equipped with a thermostated cuvette holder with stirring capabilities as well as with a computer-controlled pump which allowed for reagent addition during measurement. Instrument control and data collection was done by PTI's OSCAR software running on an IBM compatible computer. Different concentrations of the test compounds (60 μL in dimethyl sulfoxide) were added to 5.94 mL of assay buffer containing approximately 3×10^6 loaded cells, and 5 μM Nitrendipine (in […] EtOH) to block L-type Ca^2+ channels. Samples were incubated for 10 minutes at 30° C. and then aliquoted into three 10×10 mm disposable acrylic cuvettes. Emission signals at 400 and 490 nm were acquired from each cuvette at 30° C. for 50 seconds. At 20 seconds after the start of reading, cells were depolarized by the addition of 160 μL of stimulation solution (1 M KCl, 68 mM CaCl2) to the cuvette via the computer-controlled pump. Ratio of dual emission signals (400 nm/490 nm), which is proportional to intracellular Ca^2+ concentration, was plotted against time, and the difference between maximal response after stimulation and basal value (before stimulation) was determined. Values obtained in this way were plotted as a function of drug concentration. IC50 values of test compounds were calculated by fitting a four-parameter logistic function to the data using the least squares method.

T1 sequence (Q00975 whole entry): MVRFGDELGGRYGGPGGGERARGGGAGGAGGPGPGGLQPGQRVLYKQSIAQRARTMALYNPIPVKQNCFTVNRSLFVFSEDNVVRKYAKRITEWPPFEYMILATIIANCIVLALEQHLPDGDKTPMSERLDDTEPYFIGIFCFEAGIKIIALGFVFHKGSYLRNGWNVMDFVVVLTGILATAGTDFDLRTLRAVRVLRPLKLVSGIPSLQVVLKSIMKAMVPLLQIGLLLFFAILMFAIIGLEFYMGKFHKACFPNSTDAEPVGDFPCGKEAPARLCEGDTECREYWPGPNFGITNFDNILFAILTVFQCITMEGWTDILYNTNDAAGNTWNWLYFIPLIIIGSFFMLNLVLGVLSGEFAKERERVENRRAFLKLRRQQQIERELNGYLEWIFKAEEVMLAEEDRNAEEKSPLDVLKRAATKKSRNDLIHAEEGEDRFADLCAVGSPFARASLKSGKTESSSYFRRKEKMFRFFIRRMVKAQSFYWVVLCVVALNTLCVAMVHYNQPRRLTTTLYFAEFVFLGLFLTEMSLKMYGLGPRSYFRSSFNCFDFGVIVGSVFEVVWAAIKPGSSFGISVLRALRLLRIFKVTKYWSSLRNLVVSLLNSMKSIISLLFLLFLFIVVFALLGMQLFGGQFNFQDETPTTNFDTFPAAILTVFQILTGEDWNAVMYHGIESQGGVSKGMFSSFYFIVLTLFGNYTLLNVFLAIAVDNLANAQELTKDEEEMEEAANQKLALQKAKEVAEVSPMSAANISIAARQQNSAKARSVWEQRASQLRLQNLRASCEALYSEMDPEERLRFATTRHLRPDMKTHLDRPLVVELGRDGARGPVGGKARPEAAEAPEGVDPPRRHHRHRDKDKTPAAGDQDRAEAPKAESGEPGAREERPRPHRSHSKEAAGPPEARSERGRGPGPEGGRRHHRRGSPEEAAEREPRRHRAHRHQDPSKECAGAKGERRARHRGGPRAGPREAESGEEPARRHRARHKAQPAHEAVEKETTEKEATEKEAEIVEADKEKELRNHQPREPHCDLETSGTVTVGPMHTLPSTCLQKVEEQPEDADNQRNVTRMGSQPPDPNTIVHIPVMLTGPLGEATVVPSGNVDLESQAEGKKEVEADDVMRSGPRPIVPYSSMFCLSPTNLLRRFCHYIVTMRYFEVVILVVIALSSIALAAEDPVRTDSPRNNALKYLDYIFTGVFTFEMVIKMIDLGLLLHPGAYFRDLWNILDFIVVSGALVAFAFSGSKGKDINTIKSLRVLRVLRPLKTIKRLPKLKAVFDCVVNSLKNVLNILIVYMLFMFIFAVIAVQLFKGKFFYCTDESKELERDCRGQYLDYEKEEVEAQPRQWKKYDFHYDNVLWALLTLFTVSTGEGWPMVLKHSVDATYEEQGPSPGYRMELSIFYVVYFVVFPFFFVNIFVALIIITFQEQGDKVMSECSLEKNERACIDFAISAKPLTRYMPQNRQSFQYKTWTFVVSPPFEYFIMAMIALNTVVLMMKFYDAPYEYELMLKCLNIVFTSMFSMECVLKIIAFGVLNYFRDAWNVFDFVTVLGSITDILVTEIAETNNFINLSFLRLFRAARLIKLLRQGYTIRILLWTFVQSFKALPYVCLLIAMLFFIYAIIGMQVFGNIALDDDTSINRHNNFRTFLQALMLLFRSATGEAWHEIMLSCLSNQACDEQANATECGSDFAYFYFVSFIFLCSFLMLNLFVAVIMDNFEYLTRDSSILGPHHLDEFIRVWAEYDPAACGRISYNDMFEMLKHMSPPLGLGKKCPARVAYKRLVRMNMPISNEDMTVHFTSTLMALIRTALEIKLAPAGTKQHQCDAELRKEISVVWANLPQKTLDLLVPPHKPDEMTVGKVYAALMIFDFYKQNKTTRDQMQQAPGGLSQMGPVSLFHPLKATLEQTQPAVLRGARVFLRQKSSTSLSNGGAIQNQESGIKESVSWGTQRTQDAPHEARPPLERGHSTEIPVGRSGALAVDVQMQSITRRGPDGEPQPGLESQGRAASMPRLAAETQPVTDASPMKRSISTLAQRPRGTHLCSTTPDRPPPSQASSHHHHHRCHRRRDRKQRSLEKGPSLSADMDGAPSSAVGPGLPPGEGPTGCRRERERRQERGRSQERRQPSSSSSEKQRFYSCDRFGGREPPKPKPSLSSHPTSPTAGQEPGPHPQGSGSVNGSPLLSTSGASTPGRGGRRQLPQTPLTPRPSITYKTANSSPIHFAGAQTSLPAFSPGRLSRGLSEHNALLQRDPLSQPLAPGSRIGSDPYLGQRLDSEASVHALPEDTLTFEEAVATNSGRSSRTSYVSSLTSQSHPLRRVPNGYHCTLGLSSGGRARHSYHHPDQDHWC
T1 sequence (P54289 25-956 partner limits assumed): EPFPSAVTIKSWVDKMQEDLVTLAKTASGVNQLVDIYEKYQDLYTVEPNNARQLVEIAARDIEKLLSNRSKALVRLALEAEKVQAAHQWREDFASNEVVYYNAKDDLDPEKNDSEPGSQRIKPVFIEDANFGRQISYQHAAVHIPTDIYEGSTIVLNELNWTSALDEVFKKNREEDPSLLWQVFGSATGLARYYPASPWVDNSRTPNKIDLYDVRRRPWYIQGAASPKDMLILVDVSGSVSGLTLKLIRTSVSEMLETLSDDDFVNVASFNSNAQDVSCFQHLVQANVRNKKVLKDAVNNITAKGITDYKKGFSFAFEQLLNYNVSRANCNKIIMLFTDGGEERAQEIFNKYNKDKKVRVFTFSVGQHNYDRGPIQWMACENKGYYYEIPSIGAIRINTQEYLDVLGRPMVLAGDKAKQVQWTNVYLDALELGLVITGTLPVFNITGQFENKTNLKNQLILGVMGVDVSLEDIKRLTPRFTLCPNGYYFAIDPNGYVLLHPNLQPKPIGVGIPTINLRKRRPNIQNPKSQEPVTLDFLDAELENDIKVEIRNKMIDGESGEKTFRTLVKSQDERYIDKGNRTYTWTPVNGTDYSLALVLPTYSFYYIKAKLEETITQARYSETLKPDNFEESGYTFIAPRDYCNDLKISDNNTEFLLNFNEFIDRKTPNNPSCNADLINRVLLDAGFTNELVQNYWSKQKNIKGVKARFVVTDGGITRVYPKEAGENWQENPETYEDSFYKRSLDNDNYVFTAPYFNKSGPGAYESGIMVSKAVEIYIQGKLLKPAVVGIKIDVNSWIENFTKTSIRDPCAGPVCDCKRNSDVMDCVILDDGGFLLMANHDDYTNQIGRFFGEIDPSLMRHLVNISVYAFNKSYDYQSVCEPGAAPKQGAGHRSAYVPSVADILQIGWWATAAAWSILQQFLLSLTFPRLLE
T1 sequence (P54289 957-1103 partner limits assumed): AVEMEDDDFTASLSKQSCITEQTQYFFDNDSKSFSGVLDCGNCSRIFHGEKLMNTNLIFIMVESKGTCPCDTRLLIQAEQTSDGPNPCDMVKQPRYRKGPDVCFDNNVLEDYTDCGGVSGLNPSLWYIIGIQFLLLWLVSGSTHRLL
T1 sequence (Q02641 whole entry partner): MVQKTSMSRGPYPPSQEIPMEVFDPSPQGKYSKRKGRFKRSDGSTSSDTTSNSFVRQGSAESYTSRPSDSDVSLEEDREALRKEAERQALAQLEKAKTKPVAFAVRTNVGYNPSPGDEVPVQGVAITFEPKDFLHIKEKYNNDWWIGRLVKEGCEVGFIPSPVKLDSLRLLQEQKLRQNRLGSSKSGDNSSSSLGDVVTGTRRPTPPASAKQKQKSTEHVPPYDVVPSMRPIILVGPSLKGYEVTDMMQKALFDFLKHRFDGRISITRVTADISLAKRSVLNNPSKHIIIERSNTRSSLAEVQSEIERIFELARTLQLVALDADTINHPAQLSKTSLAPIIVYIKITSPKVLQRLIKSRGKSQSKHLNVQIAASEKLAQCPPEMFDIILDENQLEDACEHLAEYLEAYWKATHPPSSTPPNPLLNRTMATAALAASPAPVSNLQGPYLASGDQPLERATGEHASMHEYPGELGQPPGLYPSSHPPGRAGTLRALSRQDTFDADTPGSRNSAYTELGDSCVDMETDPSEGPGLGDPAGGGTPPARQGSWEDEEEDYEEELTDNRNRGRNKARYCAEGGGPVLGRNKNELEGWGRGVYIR

Row | SMILES | responders at 30 mg/kg (DBA/2 mice) | IC50 (N-type Ca2+ channel) | inhibition at 1 µM (N-type Ca2+ channel) | inhibition at 10 µM (N-type Ca2+ channel) | responders at 10 mg/kg (DBA/2 mice) | melting point
1 | CC(C)CCN(c1ccc(NCCC(C)O)cc1)C1CCN(C(=O)[C@H](CC(C)C)NC(=O)N2CCCCCC2)CC1 (stereo partly drawn) [Example 38, (S)-Azepane-1-carboxylic acid (1-{4-[[4-(3-hydroxy-butylamino)-phenyl]-(3-methyl-butyl)-amino]-piperidine-1-carbonyl}-3-methyl-butyl)-amide] | 60% | 1800 nM |  |  |  | 
2 | CC(C)=CCN(CC(C)(C)NC(=O)[C@H](CC(C)C)N(C)CC=C(C)C)c1ccc(OCc2ccccc2)cc1 [Example 10, (S)-4-Methyl-2-[methyl-(3-methyl-but-2-enyl)-amino]-pentanoic acid {2-[(4-benzyloxy-phenyl)-(3-methyl-but-2-enyl)-amino]-1,1-dimethyl-ethyl}-amide] | 80% |  | 54% | 82% |  | 
3 | CC(C)=CCN(CC(C)(C)NC(=O)[C@H](CC(C)C)NC(=O)N1CCCCCC1)c1ccc(OCc2ccccc2)cc1 [Example 1] | 60% | 260 nM |  |  |  | 
4 | CC(C)CC(NC(=O)N1CCCCCC1)C(=O)N1CCC(N(CCC(C)O)c2ccc(OCc3ccccc3)cc2)CC1 (stereo not drawn) [Example 32, Azepane-1-carboxylic acid (1-{4-[(4-benzyloxy-phenyl)-(3-hydroxy-butyl)-amino]-piperidine-1-carbonyl}-3-methyl-butyl)-amide] | 60% | 4600 nM |  |  |  | 
5 | CC(C)CCN(c1ccc(NCc2ccc(O)cc2)cc1)C1CCN(C(=O)[C@H](CC(C)C)NC(=O)N2CCCCCC2)CC1 [Example 42, (S)-Azepane-1-carboxylic acid (1-{4-[[4-(4-hydroxy-benzylamino)-phenyl]-(3-methyl-butyl)-amino]-piperidine-1-carbonyl}-3-methyl-butyl)-amide] | 20% | 690 nM |  |  |  | 
6 | CC(C)=CCN(c1ccc(OCc2ccccc2)cc1)C1CCN(C[C@@H](N)CC(C)C)CC1 [Example 47, (S)-[1-(2-Amino-4-methyl-pentyl)-piperidin-4-yl]-(4-benzyloxy-phenyl)-(3-methyl-but-2-enyl)-amine] |  |  | 44% | 100% | 80% | 
7 | CC(C)CCN(c1ccc(NCc2ccc(N(C)C)cc2)cc1)C1CCN(C(=O)[C@H](CC(C)C)NC(=O)N2CCCCCC2)CC1 [Example 41, (S)-Azepane-1-carboxylic acid (1-{4-[[4-(4-dimethylamino-benzylamino)-phenyl]-(3-methyl-butyl)-amino]-piperidine-1-carbonyl}-3-methyl-butyl)-amide] | 20% | 490 nM |  |  |  | 
8 | CC(C)CCN(c1ccc(N)cc1)C1CCN(C(=O)[C@H](CC(C)C)NC(=O)N2CCCCCC2)CC1 [Example 35, (S)-Azepane-1-carboxylic acid (1-{4-[(4-amino-phenyl)-(3-methyl-butyl)-amino]-piperidine-1-carbonyl}-3-methyl-butyl)-amide] | 20% | 2200 nM |  |  |  | 
9 | CC(C)=CCN(c1ccc(OCc2ccccc2)cc1)C1CCN(C(=O)[C@H](CC(C)C)NCCC(C)C)CC1 [Example 25, (S)-1-{4-[(4-Benzyloxy-phenyl)-(3-methyl-but-2-enyl)-amino]-piperidin-1-yl}-4-methyl-2-(3-methyl-butylamino)-pentan-1-one] | 80% | 480 nM |  |  |  | 
10 | CC(C)=CCN(c1ccc(OCc2ccccc2)cc1)C1CCN(C(=O)[C@H](CC(C)C)NC(=O)N2CCCCCC2)CC1 (as salt: hydrochloride) [Example 5, (S)-Azepane-1-carboxylic acid (1-{4-[(4-benzyloxy-phenyl)-(3-methyl-but-2-enyl)-amino]-piperidine-1-carbonyl}-3-methyl-butyl)-amide hydrochloride salt] |  |  |  |  |  | 125 to 126 °C
11 | CC(C)CCN(c1ccc(OCc2ccccc2)cc1)C1CCN(C(=O)[C@@H](N)CC(C)C)CC1 [Example 44, (S)-2-Amino-1-{4-[(4-benzyloxy-phenyl)-(3-methyl-butyl)-amino]-piperidin-1-yl}-4-methyl-pentan-1-one] |  |  | 50% | 100% | 20% | 

Source: patent publication US6495715B2, “Calcium channel blockers” (Warner-Lambert Company, priority 1997, dated 2002)
